Laboratory results reported in US20260041811A1, “HYDROGEL FOR THE REDUCTION OF BIOFILMS” (PAUL HARTMANN AG, priority 2022, published 2026).

Conditions: alkaline pH versus neutral and acidic pH

## O=C([O-])CN(CCN(CC(=O)[O-])CC(=O)[O-])CC(=O)[O-].[Ag+].[Ag+].[Zn+2] [Ag2Zn(EDTA)]
  stability of the active ingredient-containing solution (precipitation): can be stabilized by an alkaline pH
